Measurements published in PMC3412620 (PLoS ONE, 2012).

How the values were obtained:
[1] = target: T1, human pyridoxal kinase (hPL kinase) (Homo sapiens, UniProt O00764); experiment: crystal structure ([…] Å, ternary with ginkgotoxin); type: binding
T1 construct: gene PDXK; wild-type hPL kinase
T1 sequence (O00764 1-312): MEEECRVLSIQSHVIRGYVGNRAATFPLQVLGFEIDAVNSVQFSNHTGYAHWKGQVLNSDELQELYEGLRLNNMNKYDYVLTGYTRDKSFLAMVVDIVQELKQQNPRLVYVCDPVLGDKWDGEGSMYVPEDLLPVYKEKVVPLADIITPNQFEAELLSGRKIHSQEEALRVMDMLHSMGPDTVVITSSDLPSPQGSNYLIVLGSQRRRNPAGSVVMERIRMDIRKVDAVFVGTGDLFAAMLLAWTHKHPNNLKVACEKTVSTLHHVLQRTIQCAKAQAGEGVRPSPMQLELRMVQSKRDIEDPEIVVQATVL

[2] = target: T1, human pyridoxal kinase (hPL kinase); experiment: crystal structure ([…] Å), […] occupancy; density broken between ring and phosphate; type: binding
[3] = target: T1, human pyridoxal kinase (hPL kinase); experiment: percentage inhibition at […], spectrophotometric assay; type: biochemical
[4] = target: T1, human pyridoxal kinase (hPL kinase); experiment: spectrophotometric kinetic assay (PL to PLP, […] nm); type: biochemical
[5] = substrate: Cc1ncc(CO)c(C=O)c1O; experiment: spectrophotometric steady-state kinetics with purified enzyme (Km); type: biochemical, Homo sapiens; details: MgATP PL substrate site

`Nc1ncnc2c1ncn2[C@@H]1O[C@H](COP(=O)(O)OP(=O)(O)OP(=O)(O)O)[C@@H](O)[C@H]1O` [ATP] was tested, and the “crystal structure (2.15 Å, ternary with ginkgotoxin)” value [1] was “We observed bound MgATP and ginkgotoxin (Fig. 4A–C) at both subunit active sites”.

In the case of `COCc1c(COP(=O)(O)O)cnc(C)c1O` [GIP, ginkgotoxin phosphate], the “crystal structure (2.15 Å), 40% occupancy; density broken between ring and phosp” value [2] is reported as “We also observed what appears to be the phosphorylated product of ginkgotoxin bound at the PL sites”.

In the case of `Cn1c(=O)c2c(ncn2C)n(C)c1=O` [caffeine], the inhibition at 100 µM [3] is reported as 21%.

`CCCn1c(=O)[nH]c(=O)c2[nH]cnc21` [enprofylline] gave a Ki [4] of 228 µM.

Work on `Nc1nnc(-c2cccc(Cl)c2Cl)c(N)n1` [lamotrigine] yielded a Ki [4] of 56 µM.

Molecule `Cn1cnc2c1c(=O)[nH]c(=O)n2C` [theobromine] has an inhibition at 100 µM [3] of 22%.

B1: human pyridoxal kinase (hPL kinase) (Homo sapiens) (protein)
chain: MEEECRVLSIQSHVIRGYVGNRAATFPLQVLGFEIDAVNSVQFSNHTGYAHWKGQVLNSDELQELYEGLRLNNMNKYDYVLTGYTRDKSFLAMVVDIVQELKQQNPRLVYVCDPVLGDKWDGEGSMYVPEDLLPVYKEKVVPLADIITPNQFEAELLSGRKIHSQEEALRVMDMLHSMGPDTVVITSSDLPSPQGSNYLIVLGSQRRRNPAGSVVMERIRMDIRKVDAVFVGTGDLFAAMLLAWTHKHPNNLKVACEKTVSTLHHVLQRTIQCAKAQAGEGVRPSPMQLELRMVQSKRDIEDPEIVVQATVL
notes: wild-type hPL kinase
With B1 the Km [5] was 58 µM.
